Source: patent US8835644B2, “Broad spectrum benzothiophene-nitrothiazolide and other antimicrobials” (University of Virginia Patent Foundation, priority 2009, dated 2014)
Converted amounts (≈) assume the structure as drawn. Where two headings read alike, the source gives them in different places.

Experiments:
C. jejuni = assay: MIC testing by broth dilution, C. jejuni; type: cell-based, Campylobacter jejuni
How it was run: (§1)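 Values are broth-dilution MICs, defined as the well showing no growth on visual reading after 24 h; the tested range was 32 to 0.06 μg/ml, in organism-specific media (LB, Trypticase Soy, Brain Heart Infusion). The C. difficile entries come instead from anaerobic Kirby-Bauer disk zones, normalised to NTZ.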

S. epidermidis biofilm = S. epidermidis biofilm assay (activity tables); type: cell-based, Staphylococcus epidermidis
Protocol: Staphylococcal strains were cultured overnight in TSB at 37° C. with shaking, diluted in fresh medium to an OD600 of 0.01 and 200 W was dispensed into sterile flat bottom polystyrene 96 well microtiter plates (Costar 3596, Corning Inc.). […] Each compound and dilution was tested in triplicate. The plates were incubated overnight at 37° C. in a humidified incubator, without shaking and both growth and biofilm accumulation were determined at 16 h.
Following recording of turbidities, the culture medium was aspirated and the wells were washed three times with distilled water, blotted on paper towels, and fixed with 75% ethanol for 10 minutes.
To visualize biofilm material, 0.5% crystal violet was added to each well and after 5 minutes was removed and the wells washed three times with distilled water. Plates were read using a microplate reader at a wavelength of 570 nm. The dye was then extracted by adding 200 W of 95% ethanol, and the absorbance was read again at 570 nm. All assays were performed in triplicate and the mean and standard deviation determined. […]
(§2) Representative compounds of the invention were tested in a series of assays against a series of organisms as described above. […] The organisms tested include, C. difficile, H. pylori, C. jejuni, MRSA, S. epidermidis, and E. coli. S. epidermidis and E. coli were tested in the plank and biofilm assay. A disk diffusion assay was also used for C. difficile. Direct PFOR enzyme assays were also performed. All analogues and derivatives were not tested on every organism in every type of assay (the “-” in each table means that it was not tested).

C. difficile = assay: Disk diffusion (Kirby Bower), C. difficile; type: cell-based, Clostridium difficile; details: Nitazoxanide = 100; Thiophene analogues table
Protocol: A standard broth dilution protocol was used in 96 well microplates containing a standard dilution of the microorganism to be tested in 100 microliters of the appropriate medium. Appropriate medium: E. coli, LB medium; Staphylococcus strains, Trypticase Soy; and for H. pylori and C. jejuni, Brain Heart Infusion. The compounds to be tested were set at 32 μg/ml in 200 microliters in well one and then serially diluted to provide a range from 32 to 0.06. The wells were scored visually at 24 h. The well where there was no growth was recorded as the MIC. Clostridium difficile was tested by agar diffusion and disk diffusion (Kirby Bower) methods under anaerobic conditions on Wilkins Chalgrin agar. In these assays, zone of inhibited growth was measured and compared by relative ratio to the zone recorded for NTZ.
as §2

E. coli = assay: MIC testing by broth dilution, E. coli plank; type: cell-based, Escherichia coli
How it was run: as §1

MRSA = assay: MIC testing by broth dilution, MRSA; type: cell-based, Staphylococcus aureus
How it was run: as §1

E. coli biofilm = E. coli biofilm assay (activity tables); type: cell-based, Escherichia coli
How it was run: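 E. coli strain 042 inoculated 1:100 with NTZ-containing medium and grown statically at 37 °C for 24 h. Growth measured by turbidity or plate counts (cfu/ml); biofilm stained with 0.5% crystal violet and read at 570 nm; triplicate, mean ± SD.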

H. pylori = assay: MIC testing by broth dilution, H. pylori; type: cell-based, Helicobacter pylori
How it was run: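 Helicobacter pylori was tested using a standard broth dilution method in 96 well microplates, each well holding a standard dilution of the organism in 100 microliters of Brain Heart Infusion. Compounds started at 32 μg/ml in 200 microliters in the first well and were serially diluted from 32 to 0.06. Wells were read visually at 24 h, and the MIC was the well with no growth.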

S. epidermidis = assay: MIC testing by broth dilution, S. epidermidis plank; type: cell-based, Staphylococcus epidermidis
How it was run: as §1

[1] = broth dilution, Brain Heart Infusion, 24 h, read-out: MIC (μM) C. jejuni
[2] = broth dilution, LB medium, 24 h, read-out: MIC (μM) E. coli Plank
[3] = broth dilution, Trypticase Soy, 24 h, read-out: MIC (μM) MRSA
[4] = biofilm; read-out: MIC (μM) E. coli Biofilm
[5] = broth dilution, Brain Heart Infusion, 24 h, read-out: MIC (μM) H. pylori
[6] = broth dilution, Trypticase Soy, 24 h, read-out: MIC (μM) S. epidermidis Plank

| SMILES | MIC (C. jejuni; [1]) [µM] | MIC (μM) S. epidermidis Biofilm (S. epidermidis biofilm) [µM] | MIC (E. coli; [2]) [µM] | MIC (MRSA; [3]) [µM] | MIC (E. coli biofilm; [4]) [µM] | MIC (H. pylori; [5]) [µM] | MIC (S. epidermidis; [6]) [µM] | other results |
| --- | --- | --- | --- | --- | --- | --- | --- | --- |
| O=C(Nc1ncc([N+](=O)[O-])s1)c1ccc(Br)s1 [VPC161282, 5-Bromo-N-(5-nitrothiazol-2-yl)thiophene-2-carboxamide] | – | – | – | – | – | – | – | MIC (C. jejuni; Campylobacter jejuni, Thiophene analogues table, read-out: MIC C. jejuni): 9.9 µM (≈ 3.31 µg/mL); MIC S. epidermidis Biofilm (S. epidermidis biofilm; Thiophene analogues table): 47.9 µM (≈ 16 µg/mL); Disk Diff (%) C. difficile (C. difficile): 90%; MIC (E. coli; Escherichia coli, planktonic, Thiophene analogues table, read-out: MIC E. coli Plank): 95.8 µM (≈ 32 µg/mL); MIC (MRSA; Staphylococcus aureus, MRSA, Thiophene analogues table, read-out: MIC MRSA): 4.5 µM (≈ 1.5 µg/mL); MIC (E. coli biofilm; Escherichia coli; biofilm; Thiophene analogues table; read-out: MIC E. coli Biofilm): 0.1 µM (≈ 0.0334 µg/mL); MIC (H. pylori; Helicobacter pylori, Thiophene analogues table, read-out: MIC H. pylori): 3 µM (≈ 1 µg/mL); MIC (S. epidermidis; Staphylococcus epidermidis, planktonic, Thiophene analogues table, read-out: MIC S. epidermidis Plank): 23.9 µM (≈ 7.99 µg/mL) |
| O=C(Nc1ncc([N+](=O)[O-])s1)c1cccc(F)c1 [VPC161166] | 11.2 (≈ 2.99 µg/mL) | 59.9 (≈ 16 µg/mL) | 119.7 (≈ 32 µg/mL) | 16.8 (≈ 4.49 µg/mL) | 59.9 (≈ 16 µg/mL) | 0.9 (≈ 0.241 µg/mL) | 22.5 (≈ 6.01 µg/mL) | – |
| O=C(Nc1ncc([N+](=O)[O-])s1)c1cccc([N+](=O)[O-])c1O [VPC161090] | 103.1 (≈ 32 µg/mL) | 6.4 (≈ 1.99 µg/mL) | 103.1 (≈ 32 µg/mL) | 103.1 (≈ 32 µg/mL) | 103.1 (≈ 32 µg/mL) | 19.3 (≈ 5.99 µg/mL) | 77.4 (≈ 24 µg/mL) | – |
| CC(=O)Oc1cc(C#N)ccc1C(=O)Nc1ncc([N+](=O)[O-])s1 [VPC161076] | 96.3 (≈ 32 µg/mL) | 48.2 (≈ 16 µg/mL) | 96.3 (≈ 32 µg/mL) | 96.3 (≈ 32 µg/mL) | 96.3 (≈ 32 µg/mL) | 24.1 (≈ 8.01 µg/mL) | 96.3 (≈ 32 µg/mL) | – |
| O=C(Nc1ccc(F)cc1)Nc1ncc([N+](=O)[O-])s1 [VPC161267] | – | 28.3 (≈ 7.99 µg/mL) | – | – | – | – | – | MIC (C. jejuni; Campylobacter jejuni, broth dilution, Brain Heart Infusion, 24 h, read-out: MIC (μM) C. jejuni): 21.3 µM (≈ 6.01 µg/mL); MIC (E. coli; Escherichia coli, broth dilution, LB medium, 24 h, read-out: MIC (μM) E. coli Plank): 113 µM (≈ 32 µg/mL); MIC (MRSA; Staphylococcus aureus, MRSA, broth dilution, Trypticase Soy, 24 h, read-out: MIC (μM) MRSA): 56.7 µM (≈ 16 µg/mL); MIC (E. coli biofilm; Escherichia coli; read-out: MIC (μM) E. coli Biofilm): 56.7 µM (≈ 16 µg/mL); MIC (H. pylori; Helicobacter pylori, broth dilution, Brain Heart Infusion, 24 h, read-out: MIC (μM) H. pylori): 0.9 µM (≈ 0.254 µg/mL); MIC (S. epidermidis; Staphylococcus epidermidis, broth dilution, Trypticase Soy, 24 h, read-out: MIC (μM) S. epidermidis Plank): 28.3 µM (≈ 7.99 µg/mL) |
| O=C(CCCC(=O)Nc1ncc([N+](=O)[O-])s1)Nc1ncc([N+](=O)[O-])s1 [VPC161276, N^1,N^5-Bis(5-nitrothiazol-2-yl)glutaramide] | – | 1.3 (≈ 0.502 µg/mL) | – | – | – | – | – | MIC (C. jejuni; Campylobacter jejuni, 24 h, read-out: MIC (μM) C. jejuni): 31.1 µM (≈ 12 µg/mL); MIC (E. coli; Escherichia coli, 24 h, read-out: MIC (μM) E. coli Plank): 82.8 µM (≈ 32 µg/mL); MIC (MRSA; Staphylococcus aureus, MRSA, 24 h, read-out: MIC (μM) MRSA): 82.8 µM (≈ 32 µg/mL); MIC (E. coli biofilm; Escherichia coli, read-out: MIC (μM) E. coli Biofilm): 82.8 µM (≈ 32 µg/mL); MIC (H. pylori; Helicobacter pylori, 24 h, read-out: MIC (μM) H. pylori): 5.2 µM (≈ 2.01 µg/mL); MIC (S. epidermidis; Staphylococcus epidermidis, 24 h, read-out: MIC (μM) S. epidermidis Plank): 82.8 µM (≈ 32 µg/mL) |
| CCCC(=O)Nc1ncc([N+](=O)[O-])s1 [VPC16b1045] | 2.1 (≈ 0.452 µg/mL) | 4.6 (≈ 0.99 µg/mL) | 148.7 (≈ 32 µg/mL) | 148.7 (≈ 32 µg/mL) | 148.7 (≈ 32 µg/mL) | 0.5 (≈ 0.108 µg/mL) | 37.2 (≈ 8.01 µg/mL) | – |
| O=C(Nc1ncc([N+](=O)[O-])s1)c1ccc(-c2ccc([N+](=O)[O-])cc2)o1 [VPC161189] | – | – | – | – | – | – | – | MIC (C. jejuni; Furan analogues table, read-out: MIC C. jejuni): 16.7 µM (≈ 6.02 µg/mL); MIC S. epidermidis Biofilm (S. epidermidis biofilm; Furan analogues table): 11.1 µM (≈ 4 µg/mL); MIC (E. coli; planktonic, Furan analogues table, read-out: MIC E. coli Plank): 88.8 µM (≈ 32 µg/mL); MIC (MRSA; Furan analogues table, read-out: MIC MRSA): 88.8 µM (≈ 32 µg/mL); MIC (E. coli biofilm; biofilm; Furan analogues table; read-out: MIC E. coli Biofilm): 88.8 µM (≈ 32 µg/mL); MIC (H. pylori; Furan analogues table, read-out: MIC H. pylori): 6.9 µM (≈ 2.49 µg/mL); MIC (S. epidermidis; planktonic, Furan analogues table, read-out: MIC S. epidermidis Plank): 11.1 µM (≈ 4 µg/mL) |
| Cl.N[C@H](C(=O)Nc1ncc([N+](=O)[O-])s1)c1ccccc1 [VPC16a1027] | 38.1 | 101.7 | 101.7 | 101.7 | 25.4 | 76.3 | 101.7 | – |
| O=C(Nc1ncc([N+](=O)[O-])s1)c1cccnc1 [VPC161176] | 71.9 (≈ 18 µg/mL) | 63.9 (≈ 16 µg/mL) | 127.9 (≈ 32 µg/mL) | 127.9 (≈ 32 µg/mL) | 127.9 (≈ 32 µg/mL) | 4.0 (≈ 1 µg/mL) | 127.9 (≈ 32 µg/mL) | – |
| O=C(Nc1ncc([N+](=O)[O-])s1)c1ccc(F)cc1C(F)(F)F [VPC161127] | 23.9 (≈ 8.01 µg/mL) | 13.4 (≈ 4.49 µg/mL) | 95.5 (≈ 32 µg/mL) | 8.9 (≈ 2.98 µg/mL) | 95.5 (≈ 32 µg/mL) | 3.4 (≈ 1.14 µg/mL) | 23.9 (≈ 8.01 µg/mL) | – |
| O=C(Nc1ncc([N+](=O)[O-])s1)c1ccncc1 [VPC161177] | 24.0 (≈ 6.01 µg/mL) | 127.9 (≈ 32 µg/mL) | 127.9 (≈ 32 µg/mL) | 127.9 (≈ 32 µg/mL) | 127.9 (≈ 32 µg/mL) | 16.0 (≈ 4 µg/mL) | 127.9 (≈ 32 µg/mL) | – |
| NCCCC[C@H](N)C(=O)Nc1ncc([N+](=O)[O-])s1 [VPC16a1032] | 92.4 (≈ 25.3 µg/mL) | 92.4 (≈ 25.3 µg/mL) | 92.4 (≈ 25.3 µg/mL) | 92.4 (≈ 25.3 µg/mL) | 0.1 (≈ 0.0273 µg/mL) | 69.3 (≈ 18.9 µg/mL) | 92.4 (≈ 25.3 µg/mL) | – |
